According to patent EP0971717B1, “CYTOTOXIC AMINO SUGAR AND RELATED SUGAR DERIVATIVES OF INDOLOPYRROLOCARBAZOLES” (Bristol-Myers Squibb Company, priority 1996, dated 1998):
Blank lines part the entries; values can stand above or below the compound they belong to.

Legend:
[1] = biological target: T1, purified human topoisomerase I (Homo sapiens, UniProt P11387); assay: Topoisomerase I mediated single strand break formation in DNA (in vitro); assay type: biochemical; details: for EC50: PM2 DNA, 30 minutes at 37° C, median effective concentration for single strand DNA break formation; for Topo-I activity: result in words
T1 construct: purchased Topogen
T1 sequence (P11387 1-765): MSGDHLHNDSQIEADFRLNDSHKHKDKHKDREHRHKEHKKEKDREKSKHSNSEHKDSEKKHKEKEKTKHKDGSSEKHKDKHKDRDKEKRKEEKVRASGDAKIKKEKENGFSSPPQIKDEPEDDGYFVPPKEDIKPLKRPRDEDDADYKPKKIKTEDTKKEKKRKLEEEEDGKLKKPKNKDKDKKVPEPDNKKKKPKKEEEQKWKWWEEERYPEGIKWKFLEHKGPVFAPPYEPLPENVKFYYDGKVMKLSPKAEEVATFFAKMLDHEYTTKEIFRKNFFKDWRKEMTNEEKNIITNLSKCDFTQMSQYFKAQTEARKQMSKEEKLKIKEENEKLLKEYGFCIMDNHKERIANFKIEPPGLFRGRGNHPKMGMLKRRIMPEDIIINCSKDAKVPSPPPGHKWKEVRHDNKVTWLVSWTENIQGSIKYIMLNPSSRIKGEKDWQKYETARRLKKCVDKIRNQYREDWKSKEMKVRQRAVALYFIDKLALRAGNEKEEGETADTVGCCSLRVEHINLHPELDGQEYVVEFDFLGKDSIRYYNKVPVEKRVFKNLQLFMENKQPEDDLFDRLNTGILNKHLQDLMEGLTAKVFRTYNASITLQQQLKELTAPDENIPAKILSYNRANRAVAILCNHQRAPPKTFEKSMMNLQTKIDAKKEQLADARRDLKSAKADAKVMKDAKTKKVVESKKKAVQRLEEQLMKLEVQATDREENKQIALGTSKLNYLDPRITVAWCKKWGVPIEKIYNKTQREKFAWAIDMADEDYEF
Experimental: Samples dissolved in 100% DMSO as either […] or 10 mg/ml solutions, unless otherwise stated, were diluted in Tris-EDTA buffer. Marine bacteriophage PM2 DNA (Boehringer Mannheim) was also diluted in Tris-EDTA buffer to a concentration of 0.02 µg/µl. Different dilutions of compound being evaluated were mixed with diluted DNA and this mixture was added to 1000 unit (one unit of enzyme activity is defined as the amount capable of relaxing 100 ng of supercoiled DNA in approximately 30 minutes at 37°C) aliquots of purified human topoisomerase I (Topogen) in 2X reaction buffer to start the reaction. The compound - DNA - enzyme mixture was incubated for 30 minutes at 37° C before stopping the reaction with warm stop buffer containing sodium dodecyl sulfate and proteinase K (Sigma). These mixtures were allowed to incubate at 37° C for another 10 minutes, at which time the mixtures were removed from the waterbath and extracted with a 24:1 mixture of chloroform/isoamyl alcohol. Following centrifugation, aliquots of the aqueous phases were placed in wells of a 0.9% agarose (SeaKem) gel in Tris-borate buffer containing 0.5 µg/ml of ethidium bromide and subjected to electrophoresis for 15 hours to separate the different topological isomers and nicked and broken DNAs. After destaining the gel in water, the ethidium bromide stained DNA reaction products were visualized by exposing the gel to UV irradiation. Negatives of photographs of the irradiated gels were scanned with a densitometer and areas under the peaks were calculated in order to obtain percent single strand DNA break formation for each sample. A median effective concentration(EC50) was obtained for each compound by interpolation between points of the resulting dose - effect curve which defines the potency of the compound for its effect for inducing topoisomerase I mediated single strand breaks in DNA.

[2] = tested on: HCT116 human colon carcinoma cells; assay: In-vitro cell-based cytotoxicity, XTT assay; details: HCT-116, 72 hrs incubation, absorbance at 450 nm
Experimental: The proliferation inhibition activity against human colon cell line was measured as follows.
Cytotoxicity was assessed in HCT116 human colon carcinoma cells by XTT (2,3-bis(2-methoxy-4-nitro- 5-sulfophenyl)-5-[(phenylamino)carbonyl]-2H-tetrazolium hydroxide assay as described in the literature by Scudiero, DA, Shoemaker, RH, Paull, KD, Monks, A, Tierney, S, Nofziger, TH, Currens, MJ, Seniff, D, and Boyd, MR. Evaluation of a soluble tetrazolium/formazan assay for cell growth and drug sensitivity in culture using human and other tumor cell lines, was done according to the procedure described in Cancer Res. 48: 4827-4833, 1988. Cells were plated at 4000 cells/well in 96 well microtiter plates and 24 hrs later drugs were added and serial diluted. The cells were incubated at 37° C for 72 hrs at which time the tetrazolium dye, XTT, containing phenazine methosulfate was added. A dehydrogenase enzyme in live cells reduces the XTT to a form that absorbs light at […] which can be quantitated spectrophotometrically. The greater the absorbance the greater the number of live cells. The results are expressed as an IC50 which is the drug concentration required to inhibit cell proliferation (i.e. absorbance at 450 nm) to 50% of that of untreated control cells.

P388 leukemia cells = assay: In-vivo anti-tumor efficacy against ip implanted P388 leukemia; design: species or system mice (BDF1 or CDF1); MST: unit not given here; details: for T/C (%): ip, MST(T)/MST(C) x 100, activity defined as >= 125%; for MST: one ip injection one day after implant, median survival time of treated mice
Experimental: In-vivo antitumor experiments were initiated by implanting mice (BDF1 or CDF1) ip with 10(6) P388 leukemia cells. Treatments were initiated one day after implant and involved one ip injection per dose level; several dose levels were evaluated per compound. Six mice were typically used per dose level in treatment groups, and eight to ten mice were used as parallel untreated leukemic controls. Evaluation of activity was made on the basis of comparing the median survival time (MST) of treated (T) mice with the MST of control (C) mice. Activity was defined as a %T/C of > or = 125%, calculated as: MST(T)/MST(C) x 100 = %T/C Table I

EC50 [1]: 30 nM
SMILES: CCN(CC)C[C@H]1O[C@@H](n2c3ccc(F)cc3c3c4c(c5c6cc(F)ccc6[nH]c5c32)C(=O)N(O)C4=O)[C@H](O)[C@@H](O)[C@@H]1O [Example 68]

EC50 [1]: 30 nM
SMILES: O=C1c2c(c3c4cc(F)ccc4n([C@@H]4O[C@H](CF)[C@@H](O)[C@H](O)[C@H]4O)c3c3sc4ccc(F)cc4c23)C(=O)N1O [Example 69]

Topo-I activity [1]: not Topo-I active
SMILES: CO[C@H]1[C@H](O)[C@@H](O)[C@H](n2c3c(Cl)cccc3c3c4c(c5c6cccc(Cl)c6[nH]c5c32)C(=O)NC4=O)O[C@@H]1CO [rebeccamycin, reference compound]

EC50 [1]: 400 nM
SMILES: O=C1c2c(c3c4cc(F)ccc4n([C@@H]4O[C@H](CF)[C@@H](O)[C@H](O)[C@H]4O)c3c3[nH]c4ccc(F)cc4c23)C(=O)N1O [Example 48]

Continued, compound first:

SMILES: CN1CCN(C[C@H]2O[C@@H](n3c4ccc(F)cc4c4c5c(c6c7cc(F)ccc7[nH]c6c43)C(=O)NC5=O)[C@H](O)[C@@H](O)[C@@H]2O)CC1 [Example 35]
IC50 [2]: 500 nM | EC50 [1]: 750 nM

SMILES: NC[C@H]1O[C@@H](n2c3ccc(F)cc3c3c4c(c5c6cc(F)ccc6[nH]c5c32)C(=O)N(O)C4=O)[C@H](O)[C@@H](O)[C@@H]1O [Example 31, 3,9-Difluoro-12,13-dihydro-13-[6-amino-β-D-glucopyranosyl]-5H-indolo[2,3-a]pyrrolo [3,4-c] carbazole-5,7(6-hydroxy)dione]
EC50 [1]: < 10 nM

SMILES: CS(=O)(=O)OC[C@H]1O[C@@H](n2c3ccc(F)cc3c3c4c(c5c6cc(F)ccc6[nH]c5c32)C(=O)NC4=O)[C@H](O)[C@@H](O)[C@@H]1O [Example 15, 3,9-Difluoro-12,13-dihydro-13-[6-O-(methylsulfonyl)-β-D-glucopyranosyl]-5H-indolo[2,3-a]pyrrolo[3,4-c]carbazole-5,7(6H)-dione]
IC50 [2]: 260 nM | EC50 [1]: 30 nM

SMILES: O=C1NC(=O)c2c1c1c3cc(F)ccc3[nH]c1c1c2c2cc(F)ccc2n1[C@@H]1O[C@H](CF)[C@@H](O)[C@H](O)[C@H]1O [Example 47]
EC50 [1]: 100 nM

SMILES: O=C1NC(=O)c2c1c1c3cc(F)ccc3[nH]c1c1c2c2cc(F)ccc2n1[C@@H]1O[C@H](Cn2ccnc2)[C@@H](O)[C@H](O)[C@H]1O [Example 34]
EC50 [1]: 23000 nM

SMILES: [N-]=[N+]=NC[C@H]1O[C@@H](n2c3ccc(F)cc3c3c4c(c5c6cc(F)ccc6[nH]c5c32)C(=O)N(O)C4=O)[C@H](O)[C@@H](O)[C@@H]1O [Example 30, 3,9-Difluoro-12,13-dihydro-13-[6-azido-β-D-glucopyranosyl]-5H-indolo[2,3-a]pyrrolo [3,4-c] carbazole-5,7(6-hydroxy)dione]
EC50 [1]: < 10 nM

SMILES: NC[C@H]1O[C@@H](n2c3cc(F)ccc3c3c4c(c5c6ccc(F)cc6[nH]c5c32)C(=O)N(N)C4=O)[C@H](O)[C@@H](O)[C@@H]1O [Example 18, 6-Amino-13-(6-amino-6-deoxy-β-D-glucopyranosyl)-2,10-difluoro-12,13-dihydro-5H-indolo[2,3-a]pyrrolo[3,4-c]carbazole-5,7(6H)-dione]
IC50 [2]: > 1450 nM | Topo-I activity (concentration without activity) [1]: greater than 100 micro molar | EC50 [1]: > 100000 nM

SMILES: O=C1NC(=O)c2c1c1c3cc(F)ccc3[nH]c1c1c2c2cc(F)ccc2n1[C@@H]1O[C@H](CN2CCOCC2)[C@@H](O)[C@H](O)[C@H]1O [Example 29, 3,9-Difluoro-12,13-dihydro-13-[6-(4N-morpholino)-β-D-glucopyranosyl]-5H-indolo[2,3-a]pyrrolo [3,4-c] carbazole-5,7(6H)-dione]
IC50 [2]: 90 nM | EC50 [1]: 10 nM | T/C (%) (P388 leukemia cells; P388, 25 mg/kg/dose): 127% | MST (P388 leukemia cells; P388, 25 mg/kg/dose): 14.0 | T/C (%) (P388 leukemia cells; P388, 50 mg/kg/dose): 109% | MST (P388 leukemia cells; P388, 50 mg/kg/dose): 12.0 | T/C (%) (P388 leukemia cells; P388, 100 mg/kg/dose): 150% | MST (P388 leukemia cells; P388, 100 mg/kg/dose): 16.5 | T/C (%) (P388 leukemia cells; P388, 200 mg/kg/dose): 91% | MST (P388 leukemia cells; P388, 200 mg/kg/dose): 10

SMILES: NC[C@H]1O[C@@H](n2c3ccc(F)cc3c3c4c(c5c6cc(F)ccc6[nH]c5c32)C(=O)NC4=O)[C@H](O)[C@@H](O)[C@@H]1O [Example 19]
IC50 [2]: 110 nM | EC50 [1]: 40 nM | Topo-I activity [1]: sub micro molar | T/C (%) (P388 leukemia cells; P388, 25 mg/kg/dose): 155% | MST (P388 leukemia cells; P388, 25 mg/kg/dose): 17.0 | T/C (%) (P388 leukemia cells; P388, 50 mg/kg/dose): 168% | MST (P388 leukemia cells; P388, 50 mg/kg/dose): 18.5 | T/C (%) (P388 leukemia cells; P388, 100 mg/kg/dose): 182% | MST (P388 leukemia cells; P388, 100 mg/kg/dose): 20.0 | T/C (%) (P388 leukemia cells; P388, 200 mg/kg/dose): 82% | MST (P388 leukemia cells; P388, 200 mg/kg/dose): 9.0 | anti-tumor activity (P388 leukemia cells; result in words): effective anti-tumor agent
